The record followed here is patent US3952012A, “Aroyl-substituted pyrroles” (McNeil Laboratories, Incorporated, priority 1974, dated 1976).

Test [1] deals with kaolin-induced rat paw edema. The test is described as follows: kaolin-induced rat paw edema assay: inhibition of paw swelling, single oral dose. Type of test: in vivo, rat (male Holtzman). Particulars: for inhibition in vivo at 100 mg/kg: 100 mg/kg p.o.; for inhibition in vivo at 25 mg/kg / % INHIBITION (Average 10 rats): 25 mg/kg p.o.; for inhibition in vivo at 50 mg/kg: 50 mg/kg p.o.; for % INHIBITION (Average 10 rats): 25 mg/kg. As for the experimental part: In the kaolin-induced rat paw edema assay, the ability of a compound, when administered in a single oral dose, to inhibit the swelling of the rat paw injected with a standard amount (0.1 ml.) of 10% kaolin suspension in saline is measured. For comparative purposes, the activity of the compound to be tested is measured against that produced by the known anti-inflammatory agent, phenylbutazone. Male Holtzman rats are used in the assay.

The next test relates to cotton pellet granuloma. Description: cotton pellet granuloma assay: granuloma tissue formed around implanted cotton pellet. It counts as in vivo, rat (male Holtzman). Particulars: daily for seven days. The method, then: In the cotton pellet granuloma assay, the ability of a compound, when administered orally to male Holtzman rats daily for seven days, to inhibit the amount of granuloma tissue formed in or around a cotton pellet implanted beneath the skin in the thoracic region of the animal is measured and compared to water controls. The method is described by Charles A. Winter and coworkers in J. Pharmacol., 141, 369 (1963). Analysis of variance is used to determine the significance of the results.

Where [2] appears, read: Rattus norvegicus, po, Table I, read-out: % INHIBITION (Average 10 rats).

In the case of `CCn1c(CC(=O)O)ccc1C(=O)c1ccc(Cl)cc1` [5-(p-Chlorobenzoyl)-1-ethylpyrrole-2-acetic acid], the inhibition in vivo at 100 mg/kg in test [1] (setting [2]) is 43%.

For the compound `Cn1c(CCC(=O)O)ccc1C(=O)c1ccc(Cl)cc1` [5-(p-Chlorobenzoyl)-1-methylpyrrole-2-propionic acid], the inhibition in vivo at 25 mg/kg in test [1] (setting [2]) is 63%.

On to `Cn1c(CC(=O)NO)ccc1C(=O)c1ccc(Cl)cc1` [5-(p-Chlorobenzoyl)-1-methylpyrrole-2-acetohydroxamic acid], for which the inhibition in vivo at 25 mg/kg in test [1] (setting [2]) amounted to 33%.

Consider `Cn1c(CC(=O)O)ccc1C(=O)c1ccc([N+](=O)[O-])cc1` [5-(p-nitrobenzoyl)-do, 5-(p-Nitrobenzoyl)-1-methylpyrrole-2-acetic acid], for which the inhibition in vivo at 100 mg/kg in test [1] (setting [2]) was 35%.

What is called inhibition is the share of the control response that was lost under treatment. In the case of `CCCCC1C(=O)N(c2ccccc2)N(c2ccccc2)C1=O` [phenylbutazone, reference compound], the inhibition is listed as 30-40% in test [1] (80 mg/kg, comparator) and 50-60% in test [1] (100 mg/kg, comparator).

Turning to `Cc1ccccc1C(=O)c1ccc(CC(=O)O)n1C` [5-(o-methylbenzoyl)-do, 1-Methyl-5-(o-toluoyl)-pyrrole-2-acetic acid], the inhibition in vivo at 12.5 mg/kg in test [1] (Rattus norvegicus, po, Table I, 12.5 mg/kg p.o., read-out: % INHIBITION (Average 10 rats)) was found to be 34%.

Consider `Cc1c(CC(=O)O)c[nH]c1C(=O)c1ccc(Cl)cc1` [5-(p-Chlorobenzoyl)-4-methylpyrrole-3-acetic acid], for which, in test [1] (setting [2]), the inhibition in vivo at 50 mg/kg was 43%.

In the case of `O=C(O)Cc1ccc(C(=O)c2ccc(Cl)cc2)[nH]1` [5-(p-Chlorobenzoyl)-pyrrole-2-acetic acid], the inhibition in vivo at 25 mg/kg in test [1] (setting [2]) came to 32%.

Regarding `O=C(O)Cc1ccc(C(=O)c2ccc(Cl)cc2)n1Cc1ccccc1` [1-Benzyl-5-(p-chlorobenzoyl)-pyrrole-2-acetic acid], the inhibition in vivo at 50 mg/kg in test [1] (setting [2]) was 23%.

Regarding `CCNC(=O)Cc1ccc(C(=O)c2ccc(Cl)cc2)n1C` [5-(p-Chlorobenzoyl)-N-ethyl-1-methylpyrrole-2-acetamide], the inhibition in vivo at 25 mg/kg in test [1] (setting [2]) was determined as 25%.

As for `Cn1c(CC(=O)O)ccc1C(=O)c1ccc(Cl)cc1Cl` [5-(2',4'-dichlorobenzoyl)-do, 5-(2',4'-Dichlorobenzoyl)-1-methylpyrrole-2-acetic acid], the inhibition in vivo at 25 mg/kg in test [1] (setting [2]) stood at 51%.

`CC(C(=O)O)c1ccc(C(=O)c2ccc(Cl)cc2)n1C` (racemic) [5-(p-chlorobenzoyl)-α-methyl-1-methylpyrrole-2-acetic acid]: in test [1] (setting [2]), the inhibition in vivo at 50 mg/kg worked out at 56%.

Consider `Cn1c(CC(=O)O)ccc1C(=O)c1cccc(Cl)c1` [5-(m-chlorobenzoyl)-do, 5-(m-Chlorobenzoyl)-1-methylpyrrole-2-acetic acid], for which the inhibition in vivo at 25 mg/kg in test [1] (setting [2]) was 41%.

For the compound `Cn1c(CC(=O)O)ccc1C(=O)c1ccc(N)cc1` [5-(p-aminobenzoyl)-do, 5-(p-Aminobenzoyl)-1-methylpyrrole-2-acetic acid], in test [1] (setting [2]), the inhibition in vivo at 25 mg/kg was determined as 23%.

In the case of `Cn1c(CC(=O)O)ccc1C(=O)c1ccccc1` [Example 5-benzoyl-do, 5-Benzoyl-1-methylpyrrole-2-acetic acid], the inhibition in vivo at 25 mg/kg in test [1] (setting [2]) worked out at 38%.

For `CCC(C(=O)O)c1ccc(C(=O)c2ccc(Cl)cc2)n1C` (stereo not drawn) [5-(p-Chlorobenzoyl)-α-ethyl-1-methylpyrrole-2-acetic acid], the inhibition in vivo at 25 mg/kg in test [1] (setting [2]) stood at 22%.

Turning to `CC(C(=O)O)c1ccc(C(=O)c2ccc(Cl)cc2)n1C` (single isomer, unassigned; (-)) [(-)-5-(p-chlorobenzoyl)-α-methyl-1-methylpyrrole-2-acetic ac] [(-)-5-(p-chlorobenzoyl)-1,α-dimethylpyrrole-2-acetic acid], in test [1] (Table I), the “% INHIBITION (Average 10 rats)” value was 24%.

As to `COc1ccc(C(=O)c2ccc(CC(=O)O)n2C)cc1` [5-(p-methoxybenzoyl)-do, 5-(p-Anisoyl)-1-methylpyrrole-2-acetic acid], the inhibition in vivo at 25 mg/kg in test [1] (setting [2]) was determined as 42%. Besides, the granuloma weight result in the test with cotton pellet granuloma (25 mg/kg orally, water controls 110 mg) is “about 71 mg”.

In the case of `Cn1c(CC(=O)O)ccc1C(=O)c1ccc(C(F)(F)F)cc1` [5-(p-trifluoromethylbenzoyl)-do, 1-methyl-5-(p-trifluoromethylbenzoyl)-pyrrole-2-acetic acid], the inhibition in vivo at 25 mg/kg in test [1] (setting [2]) was found to be 60%.

As to `CCOC(=O)Cc1ccc(C(=O)c2ccc(Cl)cc2)n1C` [Ethyl 5-(p-chlorobenzoyl)-1-methylpyrrole-2-acetate], in test [1] (setting [2]), the inhibition in vivo at 25 mg/kg turned out to be 37%.

`Cn1c(CC(=O)O)ccc1C(=O)c1ccc(Cl)cc1` [5-(p-Chlorobenzoyl)-1-methylpyrrole-2-acetic acid]: the inhibition in vivo at 25 mg/kg in test [1] (setting [2]) worked out at 47%. Besides, the values for the inhibition entry in test [1] (single oral dose 12.5 mg/kg), in test [1] (single oral dose 25 mg/kg) and in test [1] (single oral doses of 50-100 mg/kg) were “about 35%”, “about 47%” and 45-53%, respectively.

In the case of `Cc1cc(CC(=O)O)[nH]c1C(=O)c1ccccc1` [5-benzoyl-4-methylpyrrole-2-acetic acid, 5-Benzoyl-4-methylpyrrole-2-acetic acid], the inhibition in vivo at 100 mg/kg in test [1] (setting [2]) turned out to be 34%.

For `Cn1c(CC(N)=O)ccc1C(=O)c1ccc(Cl)cc1` [5-(p-Chlorobenzoyl)-1-methylpyrrole-2-acetamide], the inhibition in vivo at 50 mg/kg in test [1] (setting [2]) was determined as 35%.

In the case of `Cc1cc(C(C)C(=O)O)n(C)c1C(=O)c1ccc(Cl)cc1` (stereo not drawn) [5-(p-Chlorobenzoyl)-1,4,α-trimethylpyrrole-2-acetic acid], the inhibition in test [1] (3.0 mg/kg) is given as 37%; in test [1] (9.0 mg/kg), 53%.

For `Cn1c(CC(=O)O)ccc1C(=O)c1ccc(C#N)cc1` [5-(p-cyanobenzoyl)-do, 5-(p-cyanobenzoyl)-1-methylpyrrole-2-acetic acid], in test [1] (setting [2]), the inhibition in vivo at 100 mg/kg was determined as 20%.

`COC(=O)Cc1ccc(C(=O)c2ccc(Cl)cc2)n1C` [Methyl 5-(p-chlorobenzoyl)-1-methylpyrrole-2-acetate]: the inhibition in vivo at 25 mg/kg in test [1] (setting [2]) was determined as 38%.

For the compound `Cc1ccc(C(=O)c2ccc(CC(=O)O)n2C)cc1` [5-(p-methylbenzoyl)-do, 5-(p-Toluoyl)-1-methylpyrrole-2-acetic acid], the inhibition in vivo at 25 mg/kg in test [1] (setting [2]) amounted to 44%.

For `Cn1c(CC(=O)O)ccc1C(=O)c1cccs1` [5-(2-thenoyl)-do, 1-Methyl-5-(2-thenoyl)-pyrrole-2-acetic acid], in test [1] (setting [2]), the inhibition in vivo at 25 mg/kg worked out at 63%.

As to `Cc1ccc(C(=O)c2ccc(CC(=O)O)n2C)s1` [1-Methyl-5-(5-methyl-2-thenoyl)-pyrrole-2-acetic acid], the inhibition in vivo at 25 mg/kg in test [1] (setting [2]) is 48%.

As to `Cn1c(CC(=O)O)ccc1C(=O)c1ccccc1Cl` [5-(o-chlorobenzoyl)-do, 5-(o-Chlorobenzoyl)-1-methylpyrrole-2-acetic acid], the inhibition in vivo at 25 mg/kg in test [1] (setting [2]) amounted to 44%.

For `Cn1c(CC(=O)O)ccc1C(=O)c1ccc(Br)cc1` [5-(p-bromobenzoyl)-do, 5-(p-bromobenzoyl)-1-methylpyrrole-2-acetic acid], the inhibition in vivo at 25 mg/kg in test [1] (setting [2]) stood at 42%.

Compound `Cc1cc(CC(=O)O)n(C)c1C(=O)c1ccc(Cl)cc1` [5-(p-chlorobenzoyl)-1,4-dimethylpyrrole-2-acetic acid] returned an inhibition in test [1] (dose of 2.5 mg/kg) of 51%.

Consider `Cn1c(CC(=O)O)ccc1C(=O)c1ccc(F)cc1` [5-(p-fluorobenzoyl)-do, 5-(p-fluorobenzoyl)-1-methylpyrrole-2-acetic acid], for which the inhibition in vivo at 25 mg/kg in test [1] (setting [2]) came out at 42%.

On to `CCN(CC)C(=O)Cc1ccc(C(=O)c2ccc(Cl)cc2)n1C` [5-(p-Chlorobenzoyl)-N,N-diethyl-1-methylpyrrole-2-acetamide], for which, in test [1] (setting [2]), the inhibition in vivo at 25 mg/kg is 36%.

Take `CCc1cc(CC(=O)O)n(C)c1C(=O)c1ccc(Cl)cc1` [5-(p-Chlorobenzoyl)-4-ethyl-1-methylpyrrole-2-acetic acid]: the inhibition in test [1] (3.0 mg/kg) is recorded as 29%; in test [1] (9.0 mg/kg) it was 47%.

For `CC(C(=O)O)c1ccc(C(=O)c2ccc(Cl)cc2)n1C` (single isomer, unassigned; (+)) [(+)-5-(p-chlorobenzoyl)-α-methyl-1-methylpyrrole-2-acetic ac] [(+)-5-(p-chlorobenzoyl)-1,α-dimethylpyrrole-2-acetic acid], the “% INHIBITION (Average 10 rats)” value in test [1] (Table I) stood at 62%.

As for `Cn1c(CC#N)ccc1C(=O)c1ccc(Cl)cc1` [5-(p-Chlorobenzoyl)-1-methylpyrrole-2-acetonitrile], in the test with cotton pellet granuloma (100 mg/kg orally, water controls 115 mg), the granuloma weight result is “about 98 mg”.

As to `CCN(CC)CCNC(=O)Cc1ccc(C(=O)c2ccc(Cl)cc2)n1C` [5-(p-Chlorobenzoyl)-N-(2-diethylaminoethyl)-1-methylpyrrole-2-acetamide], the inhibition in vivo at 25 mg/kg in test [1] (setting [2]) was determined as 27%.
